This note sets out measurements from ChEMBL document CHEMBL1136521, “Tetrahydroquinoline-based selective estrogen receptor modulators (SERMs)” (Bioorg Med Chem Lett, 2003).

One test has as its target Estrogen receptor beta (Homo sapiens, UniProt Q92731).
The target of test [1] is T1, Estrogen receptor (Homo sapiens, UniProt P03372).
T1 sequence (P03372 whole entry): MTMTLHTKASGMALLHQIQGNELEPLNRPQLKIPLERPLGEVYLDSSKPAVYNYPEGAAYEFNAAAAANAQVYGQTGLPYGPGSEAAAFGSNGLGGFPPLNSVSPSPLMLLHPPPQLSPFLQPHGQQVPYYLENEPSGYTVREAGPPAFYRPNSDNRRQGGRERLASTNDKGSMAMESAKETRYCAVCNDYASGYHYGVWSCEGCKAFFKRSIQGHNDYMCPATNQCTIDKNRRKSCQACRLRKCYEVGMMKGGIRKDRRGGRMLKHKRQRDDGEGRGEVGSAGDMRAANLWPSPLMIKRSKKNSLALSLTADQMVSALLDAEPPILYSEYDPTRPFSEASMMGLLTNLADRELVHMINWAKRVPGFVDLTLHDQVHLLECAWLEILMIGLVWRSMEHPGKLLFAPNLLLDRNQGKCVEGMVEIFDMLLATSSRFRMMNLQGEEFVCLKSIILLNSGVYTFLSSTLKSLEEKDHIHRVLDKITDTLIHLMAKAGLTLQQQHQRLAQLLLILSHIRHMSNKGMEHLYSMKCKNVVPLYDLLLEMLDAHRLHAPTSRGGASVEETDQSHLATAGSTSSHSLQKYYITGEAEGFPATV
Description: Binding affinity for estrogen receptor alpha

The target in test [2] is Estrogen receptor (Homo sapiens, UniProt Q92731+P03372).
Description: Inhibition of estradiol-stimulated MCF-7 breast adenocarcinoma cell proliferation

Sequence of Estrogen receptor beta (Q92731 whole entry): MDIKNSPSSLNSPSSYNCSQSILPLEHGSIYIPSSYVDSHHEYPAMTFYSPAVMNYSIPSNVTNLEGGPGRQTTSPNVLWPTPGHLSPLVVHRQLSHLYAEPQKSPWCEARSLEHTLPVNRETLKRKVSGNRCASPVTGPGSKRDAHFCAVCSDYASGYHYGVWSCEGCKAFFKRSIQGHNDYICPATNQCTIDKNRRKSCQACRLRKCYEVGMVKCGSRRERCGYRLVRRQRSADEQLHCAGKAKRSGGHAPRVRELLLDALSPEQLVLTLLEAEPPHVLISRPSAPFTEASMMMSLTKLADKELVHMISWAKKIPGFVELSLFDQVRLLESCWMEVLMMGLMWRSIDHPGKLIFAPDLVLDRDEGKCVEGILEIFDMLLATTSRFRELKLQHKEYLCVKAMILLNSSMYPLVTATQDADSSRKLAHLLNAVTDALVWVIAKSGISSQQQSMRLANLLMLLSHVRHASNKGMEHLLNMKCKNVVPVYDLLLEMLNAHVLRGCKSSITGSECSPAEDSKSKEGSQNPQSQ
Description for Estrogen receptor beta: Binding affinity for estrogen receptor beta

For the molecule `Oc1ccc(C2CCc3cc(O)ccc3N2)cc1` (stereo not given), the values for the inhibition constant (Ki) on Estrogen receptor beta and at Estrogen receptor [1] were 65 nM and 170 nM, respectively.
Regarding `O=C(c1ccc(OCCN2CCCCC2)cc1)N1c2ccc(O)cc2CCC1c1ccc(O)cc1` (stereo not given), the Ki – broadly, a dissociation constant, usually derived from enzyme kinetics or from competition with a known ligand – on Estrogen receptor beta is greater than 1000 nM. The half-inhibitory concentration (IC50) (usually the point on the concentration scale where inhibition reaches its midpoint) against Estrogen receptor [2] was 990 nM.
On to `O=C(c1ccc(OCCN2CCCCC2)cc1)N1c2ccc(O)cc2CCC1c1cccc(O)c1` (stereo not given), for which the Ki was greater than 1000 nM at Estrogen receptor beta and 37 nM on Estrogen receptor [1]. The molecule also registered an IC50 against Estrogen receptor [2] of 590 nM.
At Estrogen receptor beta, `Oc1cccc(C2CCc3cc(O)ccc3N2Cc2ccc(OCCN3CCCCC3)cc2)c1` (stereo not given) returned a Ki of 5.5 nM.
Take `Oc1ccc(C2CCc3cc(O)ccc3N2Cc2ccc(OCCN3CCCC3)cc2)cc1` (stereo not given): on Estrogen receptor [1], the Ki was found to be 1.1 nM. The molecule also gave a half-inhibitory concentration (IC50) at Estrogen receptor [2] of 68 nM.
`Oc1ccc(-c2ccc3cc(O)ccc3n2)cc1`: the values for the Ki on Estrogen receptor beta and on Estrogen receptor [1] were 35 nM and 310 nM, respectively.
Regarding `Oc1ccc2c(c1)CCC(c1ccccc1)N2Cc1ccc(OCCN2CCCCC2)cc1` (stereo not given), the Ki at Estrogen receptor beta amounted to 4 nM; at Estrogen receptor [1], 1.7 nM. At Estrogen receptor [2], this molecule gave an IC50 of 490 nM.
